The record followed here is US20220324862A1, “PYRIDOPYRIMIDINONE COMPOUNDS” (Acerand Therapeutics (USA) Limited, priority 2021, published 2022).

Each structure is given as a SMILES string.

In this test the target is T1, protein-protein interaction between SOS1 and KRAS-G12D (Homo sapiens, UniProt Q07889).
T1 construct: The purified GST-SOS1 catalytic domain (residues 564-1049) was first diluted in assay buffer; made in house; host or cells: E. coli BL21 (DE3) for SOS1; E. coli BL21 carrying a BirA plasmid for KRAS-G12D
T1 sequence (Q07889 564-1049): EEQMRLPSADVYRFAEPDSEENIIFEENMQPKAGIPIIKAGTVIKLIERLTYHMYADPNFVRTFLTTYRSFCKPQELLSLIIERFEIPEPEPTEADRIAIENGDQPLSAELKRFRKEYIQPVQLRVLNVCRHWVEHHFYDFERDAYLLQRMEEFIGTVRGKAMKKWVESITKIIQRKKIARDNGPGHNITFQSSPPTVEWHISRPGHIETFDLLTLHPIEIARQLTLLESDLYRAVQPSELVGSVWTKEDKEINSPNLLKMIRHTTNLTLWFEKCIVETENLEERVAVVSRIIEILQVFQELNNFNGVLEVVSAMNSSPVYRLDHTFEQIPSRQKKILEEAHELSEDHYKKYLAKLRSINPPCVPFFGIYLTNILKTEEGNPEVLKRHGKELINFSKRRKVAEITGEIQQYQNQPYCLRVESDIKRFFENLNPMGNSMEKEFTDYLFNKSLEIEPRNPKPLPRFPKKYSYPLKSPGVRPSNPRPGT
Briefly: HTRF Based Protein-Protein Interaction Assay. In kind it is binding. The conditions noted are these: HTRF; GST-SOS1 2.5 nM, KRAS-G12D 100 nM, GDP 10 uM; read-out: IC50 value, inhibition of SOS1/KRAS-G12D protein-protein interaction. An excerpt:
A KRAS-G12D and SOS1 binding/interaction assay was designed to measure the interaction between KRAS-G12D and SOS1 proteins. Utilizing HTRF (Homogeneous Time-Resolved Fluorescence) technology, the assay enabled simple and rapid characterization of compound and protein interaction in a high throughput format. This assay was used to examine potency of the compounds in inhibiting the protein-protein interaction between SOS1 and KRAS-G12D. […] Low IC50 values are indicative of high potency of the SOS1 inhibitor compound to disrupt SOS1 and Kras-G12D interaction.
Protein Expression and Purification. The corresponding gene sequence to human SOS1 (residues 564-1049, UniProt ID: Q07889; SEQ ID NO: 2) was synthesized and fused in frame with GST expression vector. After the desired sequence was confirmed, plasmid containing the sequence was transformed into the E. coli strain BL21 (DE3). Bacteria were growing at 37° C. in LB media containing 50 μg/ml Kanamycin to give OD600 of 0.6-0.8. Then 0.2 mM IPTG was added to induce protein expression for 16 hours at 17° C. Bacteria were harvested by centrifugation and stored at −80° C. Bacteria pellets were resuspended in lysis buffer (25 mM Tris-HCl, 500 mM NaCl, 2 mM DTT, 2.3% sucrose, 0.3% dextran-10, 1 mM PMSF, pH 7.5) and lysed using high-pressure homogenizer. The lysate was cleared by centrifugation for 30 minutes (12000 rpm at 4° C.). The supernatant containing GST-SOS1 fragment was purified sequentially through Glutathione column and gel filtration (Hiload 16/600 Superdex […] column, Cytiva). The purified GST-SOS1 fragment was confirmed by SDS-PAGE and stored in 25 mM Tris-HCl, 100 mM NaCl, 1 mM DTT, 2.3% sucrose, 0.3% dextran-10, pH 7.5 at −80° C.
Kras-G12D Protein Purification. The sequence corresponding to human KRAS-G12D (residues 1-169, UniProt P01116-2; SEQ ID NO: 1) was synthesized and fused in frame with His-AVI-TEV vector. The plasmid was transformed into the E. coli strain BL21 (containing a plasmid that can generate BirA enzyme). Bacteria were growing at 37° C. in TB media containing 100 μg/ml ampicillin and 50 μg/ml Kanamycin to give OD600 of 0.6-0.8. The 0.5 mM IPTG and 50 mg/l biotin were added to induce protein expression for 16 hours at 25° C. Bacteria were harvested by centrifugation and stored at −80° C. Bacteria pellets were re-suspended in lysis buffer (20 mM Tris-HCl, 500 mM NaCl, 5 mM MgCl2, 2 mM […], 5% glycerol, pH 8.0) and lysed using high-pressure homogenizer. The lysate was cleared by centrifugation for 30 minutes (12000 rpm at 4° C.). The supernatant containing HIS-AVI-TEV-KRAS-G12D fragment was purified sequentially through Ni-NTA column (SMART), Streptactin column (SMART), and gel filtration (Hiload 16/600 Superdex 75 pg, GE). The purified HIS-AVI-TEV-KRAS-G12D fragment was confirmed by SDS-PAGE and stored in 50 mM HEPES-NaOH, 100 mM NaCl, 1 mM DTT, 5 mM MgCl2, pH 7.5 at −80° C.
Protein-Protein Interaction Assay. An assay buffer containing 50 mM HEPES, pH 7.5, 50 mM NaCl, 0.01% Brij-35, 1 mM TCEP, 0.1% BSA was prepared, and concentration series of test compounds were generated spanning from 0.5 nM to 10 μM over 10 3-fold serial dilutions in a 384-well assay plate at a volume of 20 pL. The purified GST-SOS1 catalytic domain (residues 564-1049) was first diluted in assay buffer and 5 μl of SOS1 (final concentration 2.5 nM in assay mixture) was directly dispensed into compound plates. After a spin down at 1000 RPM for 30 seconds, the SOS1/compound mixture was incubated at 25° C. for 15 minutes to allow the reaction between SOS1 and the compound. A KRAS-G12D mixture was prepared by incubation of avi-tagged Kras-G12D (residue 1-169) and GDP in assay buffer containing 10 mM MgCl2 at room temperature for 10 minutes. A KRAS-G12D and GDP mixture (5 μL) was added to the assay plate (final KRAS-G12D was 100 nM and GDP was 10 uM). The plate was centrifuged at 1000 rpm for 30 sec and incubated at 25° C. for 60 minutes. […]
Regarding `C#C[C@@H](Nc1nc(C)nc2cc(=O)n(C3(C)CC3)cc12)c1cccc(C(F)F)c1F` [Compound 20, (R)-4-((1-(3-(difluoromethyl)-2-fluorophenyl)prop-2-yn-1-yl)amino)-2-methyl-6-(1-methylcyclopropyl)pyrido[4,3-d]pyrimidin-7(6H)-one], the IC50 is below 0.1 µM.

For `C#C[C@@H](Nc1nc(C)nc2cc(=O)n(C3(C#C)CC3)cc12)c1cccc(C(F)(F)F)c1C` [Compound 5, (R)-6-(1-ethynylcyclopropyl)-2-methyl-4-((1-(2-methyl-3-(trifluoromethyl)phenyl)prop-2-yn-1-yl)amino)pyrido[4,3-d]pyrimidin-7(6H)-one], the IC50 was below 0.1 µM. The value for `C#C[C@@H](Nc1nc(C)nc2cc(=O)n(C3(C)CCOC3)cc12)c1cccc(C(F)F)c1C` (mixture of isomers) [Compound 13, 4-(((R)-1-(3-(difluoromethyl)-2-methylphenyl)prop-2-yn-1-yl)amino)-2-methyl-6-(3-methyltetrahydrofuran-3-yl)pyrido[4,3-d]pyrimidin-7(6H)-one] was below 0.1 µM. As for `C#C[C@@H](Nc1nc(C)nc2cc(=O)n(C3(CF)CC3)cc12)c1cccc(C(F)F)c1F` [Compound 32, (R)-4-((1-(3-(difluoromethyl)-2-fluorophenyl)prop-2-yn-1-yl)amino)-6-(1-(fluoromethyl)cyclopropyl)-2-methylpyrido[4,3-d]pyrimidin-7(6H)-one], the IC50 was below 0.1 µM. Under `C#C[C@@H](Nc1nc(C)nc2cc(=O)n(C3CC(F)(F)C3)cc12)c1cccc(C(F)F)c1F` [Compound 29, (R)-6-(3,3-difluorocyclobutyl)-4-((1-(3-(difluoromethyl)-2-fluorophenyl)prop-2-yn-1-yl)amino)-2-methylpyrido[4,3-d]pyrimidin-7(6H)-one] stands below 0.1 µM; under `C#C[C@@H](Nc1nc(C)nc2cc(=O)n(C3(C)CCOC3)cc12)c1cccc(C(F)(F)F)c1C` (stereo partly drawn) [Compound 7, 2-methyl-4-(((R)-1-(2-methyl-3-(trifluoromethyl)phenyl)prop-2-yn-1-yl)amino)-6-(3-methyltetrahydrofuran-3-yl)pyrido[4,3-d]pyrimidin-7(6H)-one], below 0.1 µM; under `C#C[C@@H](Nc1nc(C)nc2cc(=O)n(C3(C)CC3)cc12)c1cccc(C(F)(F)F)c1C` [Compound 18, (R)-2-methyl-4-((1-(2-methyl-3-(trifluoromethyl)phenyl)prop-2-yn-1-yl)amino)-6-(1-methylcyclopropyl)pyrido[4,3-d]pyrimidin-7(6H)-one], below 0.1 µM.

For the compound `C#C[C@@H](Nc1nc(C)nc2cc(=O)n(C3(C(F)F)CC3)cc12)c1cccc(Br)c1F` [Compound 41, (R)-4-((1-(3-bromo-2-fluorophenyl)prop-2-yn-1-yl)amino)-6-(1-(difluoromethyl)cyclopropyl)-2-methylpyrido[4,3-d]pyrimidin-7(6H)-one], the IC50 lay in the range of 0.1 to 0.2 µM.

Regarding `C#C[C@@H](Nc1nc(C)nc2cc(=O)n(C3(C)CC3)cc12)c1cccc2c1OCC2(F)F` [Compound 21, (R)-4-((1-(3,3-difluoro-2,3-dihydrobenzofuran-7-yl)prop-2-yn-1-yl)amino)-2-methyl-6-(1-methylcyclopropyl)pyrido[4,3-d]pyrimidin-7(6H)-one], the IC50 is below 0.1 µM. The value for `C#C[C@@H](Nc1nc(C)nc2cc(=O)n(C3(C#N)CC3)cc12)c1cccc(C(F)(F)F)c1C` [Compound 6, (R)-1-(2-methyl-4-((1-(2-methyl-3-(trifluoromethyl)phenyl)prop-2-yn-1-yl)amino)-7-oxopyrido[4,3-d]pyrimidin-6(7H)-yl)cyclopropane-1-carbonitrile] was below 0.1 µM; that for `C#C[C@@H](Nc1nc(C)nc2c(C)c(=O)n(C3(C)CC3)cc12)c1cccc(C(F)(F)F)c1C` [Compound 28, (R)-2,8-dimethyl-4-((1-(2-methyl-3-(trifluoromethyl)phenyl)prop-2-yn-1-yl)amino)-6-(1-methylcyclopropyl)pyrido[4,3-d]pyrimidin-7(6H)-one] was below 0.1 µM; that for `C#C[C@@H](Nc1nc(C)nc2cc(=O)n(C3(C4CCOC4)CC3)cc12)c1cccc(C(F)(F)F)c1C` (stereo partly drawn) [Compound 34, 2-methyl-4-(((R)-1-(2-methyl-3-(trifluoromethyl)phenyl)prop-2-yn-1-yl)amino)-6-(1-(tetrahydrofuran-3-yl)cyclopropyl)pyrido[4,3-d]pyrimidin-7(6H)-one] was below 0.1 µM. With `C#C[C@@H](Nc1nc(C)nc2cc(=O)n(C34CC(C3)C4)cc12)c1cccc2c1CCC2(F)F` [Compound 2, (R)-6-(bicyclo[1,1,1]pentan-1-yl)-4-((1-(1,1-difluoro-2,3-dihydro-1H-inden-4-yl)prop-2-yn-1-yl)amino)-2-methylpyrido[4,3-d]pyrimidin-7(6H)-one], the IC50 is below 0.1 µM. As to `C#C[C@@H](Nc1nc(C)nc2cc(=O)n([C@H]3C[C@H](F)C3)cc12)c1cccc(C(F)(F)F)c1C` [Compound 10, 6-((1S,3S)-3-fluorocyclobutyl)-2-methyl-4-(((R)-1-(2-methyl-3-(trifluoromethyl)phenyl)prop-2-yn-1-yl)amino)pyrido[4,3-d]pyrimidin-7(6H)-one], the IC50 was below 0.1 µM. Under `C#C[C@@H](Nc1nc(C)nc2cc(=O)n(C3(C)CC3)cc12)c1cccc(C(C)(F)F)c1F` [Compound 19, (R)-4-((1-(3-(1,1-difluoroethyl)-2-fluorophenyl)prop-2-yn-1-yl)amino)-2-methyl-6-(1-methylcyclopropyl)pyrido[4,3-d]pyrimidin-7(6H)-one] stands below 0.1 µM; under `C#C[C@@H](Nc1ncnc2c1cc(C1(F)CCN(C(C)=O)CC1)c(=O)n2C)c1cccc(C(F)F)c1F` [Compound 47, 6-(1-acetyl-4-fluoropiperidin-4-yl)-4-{[(1R)-1-[3-(difluoromethyl)-2-fluorophenyl]prop-2-yn-1-yl]amino}-8-methyl-7H,8H-pyrido[2,3-d]pyrimidin-7-one], below 0.1 µM; under `C=C[C@@H](Nc1nc(C)nc2cc(=O)n(C3(C)CC3)cc12)c1cccc(C(F)(F)F)c1C` [Compound 22, (R)-2-methyl-4-((1-(2-methyl-3-(trifluoromethyl)phenyl)allyl)amino)-6-(1-methylcyclopropyl)pyrido[4,3-d]pyrimidin-7(6H)-one], below 0.1 µM.
